Assay results from US20250268934A1, “Compositions and Methods for the Treatment of Bacterial Vaginosis” (priority 2022, published 2025).
Values belong to the compound of their own block, whether it stands above or below them.

Experiments:
[1] = test system: biofilm formation by G. vaginalis ATCC 14018; test: Inhibition of biofilm formation (MIC-B, crystal violet staining, checkerboard); type: cell-based, Gardnerella vaginalis; details: for MIC: Gardnerella vaginalis, ATCC14018, read-out: MIC-B90
Experimental: Combinations of boric acid with metronidazole or tinidazole were tested in vitro in a non-planktonic, biofilm model for inhibition of biofilm formation by G. vaginalis (ATCC strain 14018).
Bacterial strain, culture media and growth conditions: From the frozen stock (−80° C.), G. vaginalis ATCC 14018 was inoculated in three culture media and propagated at 37° C. for 48 h. Brain-heart infusion (BHI) broth (Difco BD, Franklin, NJ, USA) supplemented with horse serum 3% (JRH Biosciences, KS) was used to maintain microbial growth. […] (HBT) agar (Remel, Lenexa, KS, USA) was used to confirm the purity of the frozen stock. The inoculated broth and HBT agar were incubated anaerobically (10% hydrogen, 5% carbon dioxide and 85% nitrogen) using an anaerobic gloves box (Coy Laboratory Products, Inc., Grass Lake, MI, USA). After the incubation period, the bacterial cells were transferred to BHI broth supplemented with 1% glucose (Fisher Scientific, Waltham, MA, USA) (BHIG), every 24 h twice prior to the initiation of an experiment. In order to provide suitable conditions for G. vaginalis anaerobic growth and to avoid oxidative stress, culture media were pre-incubated in the anaerobic chamber at least overnight before bacterial inoculation.
Stock solutions of antibacterial agents: Antimicrobials were evaluated for their activity against biofilm-associated G. vaginalis. Metronidazole was purchased from Alfa Aesar (Ward Hill, Massachusetts, USA). Metronidazole was prepared as a stock solution of 10 mg mL^−1 in ddH2O. Tinidazole was purchased from TCI America (Portland, OR, USA). Tinidazole was prepared as a stock solution of 10 mg/ml in DMSO. Boric acid was purchased from Fisher Chemical (Hampton, NH, USA). A fresh 1 mg mL^−1 boric acid solution in BHIG was prepared at the beginning of each experiment within the anaerobic chamber, and mixed with BHIG that had been in the anaerobic chamber overnight (to avoid oxidative stress). The stock solutions of antimicrobials were sterilized using syringe filter 0.45 μm and kept in the refrigerator for a maximum of 3 weeks. On the day of the experiment, the stock solutions were diluted in the anaerobic chamber (to avoid oxidative stress) with pre-incubated BHIG broth to avoid changing the concentrations of nutrients of growth media.
Determination of minimum biofilm inhibitory concentrations (MICs-B): MIC determination was performed according to Sutyak et al. (Antimicrob Agents, Ch 56: 1756-61, 2012) with minor modifications. Each agent was diluted two-fold with BHIG broth into two separate 96-well non-tissue culture microplates. From each dilution of boric acid, 50 μl was added horizontally over 50 μl of metronidazole or tinidazole. The final volume of antimicrobial agents diluted into the broth was 100 μL in each well. The overnight cell culture at 3±2×10^8 CFU mL^−1 was diluted in BHIG to a final concentration of 5×10^6 CFU mL^−1. From the diluted bacterial cells, 100 μL was transferred into the wells containing predetermined concentrations of antimicrobials. Sterile sealing tape (Thermo Fisher Scientific, Rochester, NY) was used to prevent evaporation. The 96-well plate was then incubated anaerobically at 37° C. for 48 h. After incubation, the biofilm was stained using 0.1% crystal violet as described by Algburi et al. (Antimicrob Agents, Ch. 61: e00650-17, 2017); Weeks et al. (Pathog Dis 77(8):ftz059, 2019; doi: 10.1093/femspd/ftz059).
Biofilm staining using CV: Biofilm staining using CV was performed as described by Borucki et al. (Appl Environ Microbiol, 69(12):7336-42, 2003, doi: 10.1128/AEM.69.12.7336-7342.2003) with minor modifications. Briefly, after counting of the non-adherent cells, the biofilm was fixed at 60° C. for 60 minutes in an inverted position in an incubator (New Brunswick Scientific Co., Inc., NJ, USA). To each well, 125 μl of 0.1% CV was added and left at room temperature for 20 minutes.

[2] = test system: G. vaginalis ATCC 14018 planktonic cells; test: Checkerboard assay / MIC against planktonic cells; type: cell-based; details: Gardnerella vaginalis, ATCC14018; agent alone, planktonic G. vaginalis 14018, 24 h anaerobic, 37° C.; read-out: minimal inhibitory concentration (MIC)
Experimental: From each dilution of boric acid, 50 μl was added horizontally over 50 μl of metronidazole or tinidazole.
The FIC index (FICI) for the combination of two agents is the sum of their individual FIC values.

[3] = concentration needed to inhibit 90% of biofilm, agent alone

MIC [1, 3]: 2.5 µg/mL
MIC-B90 [1, 3]: 0.25 % m/v
MIC [2]: 1.25 µg/mL
Compound: OB(O)O [boric acid]
Biofilm mass as a percentage of an untreated control ([1]; well A10: boric acid 0.5 m/v alone (metronidazole 0)): −2%
Biofilm mass as a percentage of an untreated control ([1]; well A10: boric acid 0.5 m/v alone (tinidazole 0)): −1%
Biofilm mass as a percentage of an untreated control ([1]; well B10: boric acid 0.25 m/v alone (metronidazole 0)): −1%
Biofilm mass as a percentage of an untreated control ([1]; well B10: boric acid 0.25 m/v alone (tinidazole 0)): 0%
Biofilm mass as a percentage of an untreated control ([1]; well C10: boric acid 0.125 m/v alone (metronidazole 0)): 85%
Biofilm mass as a percentage of an untreated control ([1]; well C10: boric acid 0.125 m/v alone (tinidazole 0)): 63%
Biofilm mass as a percentage of an untreated control ([1]; well D10: boric acid 0.0625 m/v alone (metronidazole 0)): 95%
Biofilm mass as a percentage of an untreated control ([1]; well D10: boric acid 0.0625 m/v alone (tinidazole 0)): 88%
Biofilm mass as a percentage of an untreated control ([1]; well E10: boric acid 0.03125 m/v alone (metronidazole 0)): 92%
Biofilm mass as a percentage of an untreated control ([1]; well E10: boric acid 0.03125 m/v alone (tinidazole 0)): 93%
Biofilm mass as a percentage of an untreated control ([1]; well F10: boric acid 0.015625 m/v alone (metronidazole 0)): 100%
Biofilm mass as a percentage of an untreated control ([1]; well F10: boric acid 0.015625 m/v alone (tinidazole 0)): 95%
Biofilm mass as a percentage of an untreated control ([1]; well G10: boric acid 0.007813 m/v alone (metronidazole 0)): 101%
Biofilm mass as a percentage of an untreated control ([1]; well G10: boric acid 0.007813 m/v alone (tinidazole 0)): 98%

MIC [1, 3]: 25 µg/mL
MIC [2]: 6.25 µg/mL
Compound: Cc1ncc([N+](=O)[O-])n1CCO [metronidazole]
Biofilm mass as a percentage of an untreated control ([1]; well H1: metronidazole 25 μg/ml alone (boric acid 0)): 0%
Biofilm mass as a percentage of an untreated control ([1]; well H2: metronidazole 12.5 μg/ml alone (boric acid 0)): 11%
Biofilm mass as a percentage of an untreated control ([1]; well H3: metronidazole 6.25 μg/ml alone (boric acid 0)): 61%
Biofilm mass as a percentage of an untreated control ([1]; well H4: metronidazole 3.125 μg/ml alone (boric acid 0)): 73%
Biofilm mass as a percentage of an untreated control ([1]; well H5: metronidazole 1.5625 μg/ml alone (boric acid 0)): 88%
Biofilm mass as a percentage of an untreated control ([1]; well H6: metronidazole 0.78125 μg/ml alone (boric acid 0)): 96%
Biofilm mass as a percentage of an untreated control ([1]; well H7: metronidazole 0.390625 μg/ml alone (boric acid 0)): 95%
Biofilm mass as a percentage of an untreated control ([1]; well H8: metronidazole 0.195313 μg/ml alone (boric acid 0)): 123%
Biofilm mass as a percentage of an untreated control ([1]; well H9: metronidazole 0.09765625 μg/ml alone (boric acid 0)): 100%

MIC [1, 3]: 25 µg/mL
MIC [2]: 1.56 µg/mL
Compound: CCS(=O)(=O)CCn1c([N+](=O)[O-])cnc1C [tinidazole]
Biofilm mass as a percentage of an untreated control ([1]; well H1: tinidazole 25 μg/ml alone (boric acid 0)): 6%
Biofilm mass as a percentage of an untreated control ([1]; well H2: tinidazole 12.5 μg/ml alone (boric acid 0)): 15%
Biofilm mass as a percentage of an untreated control ([1]; well H3: tinidazole 6.25 μg/ml alone (boric acid 0)): 33%
Biofilm mass as a percentage of an untreated control ([1]; well H4: tinidazole 3.125 μg/ml alone (boric acid 0)): 104%
Biofilm mass as a percentage of an untreated control ([1]; well H5: tinidazole 1.5625 μg/ml alone (boric acid 0)): 133%
Biofilm mass as a percentage of an untreated control ([1]; well H6: tinidazole 0.78125 μg/ml alone (boric acid 0)): 134%
Biofilm mass as a percentage of an untreated control ([1]; well H7: tinidazole 0.390625 μg/ml alone (boric acid 0)): 88%
Biofilm mass as a percentage of an untreated control ([1]; well H8: tinidazole 0.195313 μg/ml alone (boric acid 0)): 92%
Biofilm mass as a percentage of an untreated control ([1]; well H9: tinidazole 0.09765625 μg/ml alone (boric acid 0)): 95%
